Experimental data from US9271971B2, “Pyrido[3,4-B]indoles and methods of use” (Medivation Technologies, Inc., priority 2009, dated 2016).

Experiments:
[1] = target: T1, human recombinant adrenergic α1D receptor (Homo sapiens, UniProt P25100); test: Adrenergic α1D radioligand binding assay; conditions: [3H]Prozosin specific binding; for inhibition at 1 µM: read-out: Percent Inhibition of ligand binding, Adrenergic (1 μM ligand conc.) α1D; for inhibition at 0.1 µM: read-out: Percent Inhibition of ligand binding, Adrenergic (0.1 μM ligand conc.) α1D
T1 construct: expressed in transfected cells; host or cells: human embryonic kidney (HEK-293) cells
T1 sequence (P25100 1-572): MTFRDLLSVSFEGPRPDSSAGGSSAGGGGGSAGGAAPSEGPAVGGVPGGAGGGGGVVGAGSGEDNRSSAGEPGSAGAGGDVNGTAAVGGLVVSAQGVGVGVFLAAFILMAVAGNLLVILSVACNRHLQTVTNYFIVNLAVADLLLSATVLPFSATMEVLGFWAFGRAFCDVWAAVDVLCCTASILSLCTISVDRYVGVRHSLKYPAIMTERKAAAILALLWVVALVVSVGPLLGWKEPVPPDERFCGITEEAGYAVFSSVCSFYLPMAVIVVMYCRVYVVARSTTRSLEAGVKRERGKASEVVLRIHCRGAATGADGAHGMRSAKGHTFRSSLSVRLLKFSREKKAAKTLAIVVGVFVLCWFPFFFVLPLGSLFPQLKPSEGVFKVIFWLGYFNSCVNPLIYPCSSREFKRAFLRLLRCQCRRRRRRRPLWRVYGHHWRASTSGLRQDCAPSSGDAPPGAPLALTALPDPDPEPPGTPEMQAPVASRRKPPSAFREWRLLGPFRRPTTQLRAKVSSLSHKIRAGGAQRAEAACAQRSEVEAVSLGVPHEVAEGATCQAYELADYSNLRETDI
Experimental: To evaluate in radioligand binding assays the activity of compounds of the invention, human recombinant adrenergic α1D receptor expressed in human embryonic kidney (HEK-293) cells [Kenny, B. A. et al. Br. J. Pharmacol. (1995), 115(6):981] in a 50 mM Tris-HCl buffer, pH 7.4, was used. Compounds of invention were incubated with 0.6 nM [^3H]Prozosin for 60 min. at 25° C. Non-specific binding was estimated in the presence of 10 μM phentolamine. Receptor proteins were filtered and washed, the filters were then counted to determine [^3H]Prozosin specifically bound. Compounds were screened at 1 μM or lower, using 1% DMSO as vehicle. Compounds of the invention were tested in this biochemical assay. Biochemical assay results for representative compounds were presented as the percent inhibition of specific binding in Table 3.

[2] = target: human recombinant dopamine D2L receptor (Homo sapiens, UniProt P14416); test: Dopamine D2L radioligand binding assay; conditions: [3H]Spiperone specific binding; for inhibition at 1 µM: read-out: Percent Inhibition of ligand binding, Dopamine (1 μM ligand conc.) D2L
human recombinant dopamine D2L receptor, sequence (P14416 whole entry): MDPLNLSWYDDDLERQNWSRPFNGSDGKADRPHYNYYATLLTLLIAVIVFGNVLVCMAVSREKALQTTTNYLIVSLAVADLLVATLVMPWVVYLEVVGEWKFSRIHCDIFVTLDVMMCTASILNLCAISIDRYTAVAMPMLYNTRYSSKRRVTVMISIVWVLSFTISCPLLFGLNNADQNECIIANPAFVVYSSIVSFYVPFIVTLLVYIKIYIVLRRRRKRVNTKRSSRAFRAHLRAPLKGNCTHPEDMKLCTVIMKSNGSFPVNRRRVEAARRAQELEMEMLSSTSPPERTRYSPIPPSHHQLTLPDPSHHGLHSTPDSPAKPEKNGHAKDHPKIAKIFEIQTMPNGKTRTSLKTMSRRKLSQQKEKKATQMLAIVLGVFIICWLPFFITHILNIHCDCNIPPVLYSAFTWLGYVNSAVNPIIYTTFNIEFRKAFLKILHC
Experimental: To evaluate in radioligand binding assays the activity of compounds of the invention, human recombinant dopamine D2L receptor expressed in Chinese hamster ovary (CHO) cells [Grandy, D. K. et al. Proc. Natl. Acad. Sci. USA. (1989), 86:9762; Hayes, G. et al., Mol. Endocrinol. (1992), 6:920] in a modified Tris-HCl buffer (50 mM Tris-HCl, pH 7.4, 1.4 mM Ascorbic Acid, 0.001% BSA, 150 mM NaCl) was used. Compounds of the invention were incubated with 0.16 nM [^3H]Spiperone for 120 min. at 25° C. Non-specific binding was estimated in the presence of 10 μM Haloperidol. Receptor proteins were filtered and washed, the filters were then counted to determine [^3H]Spiperone specifically bound. Compounds were screened at 1 μM or lower, using 1% DMSO as vehicle. Biochemical assay results are presented as the percent inhibition of specific binding in Table 3.

[3] = target: T2, human recombinant adrenergic α2B receptor (Homo sapiens, UniProt P18089); test: Adrenergic α2B radioligand binding assay; conditions: [3H]Rauwolscine specific binding; for inhibition at 1 µM: read-out: Percent Inhibition of ligand binding, Adrenergic (1 μM ligand conc.) α2B; for inhibition at 0.1 µM: read-out: Percent Inhibition of ligand binding, Adrenergic (0.1 μM ligand conc.) α2B
T2 construct: expressed in transfected cells; host or cells: Chinese hamster ovary (CHO-K1) cells
T2 sequence (P18089 1-450): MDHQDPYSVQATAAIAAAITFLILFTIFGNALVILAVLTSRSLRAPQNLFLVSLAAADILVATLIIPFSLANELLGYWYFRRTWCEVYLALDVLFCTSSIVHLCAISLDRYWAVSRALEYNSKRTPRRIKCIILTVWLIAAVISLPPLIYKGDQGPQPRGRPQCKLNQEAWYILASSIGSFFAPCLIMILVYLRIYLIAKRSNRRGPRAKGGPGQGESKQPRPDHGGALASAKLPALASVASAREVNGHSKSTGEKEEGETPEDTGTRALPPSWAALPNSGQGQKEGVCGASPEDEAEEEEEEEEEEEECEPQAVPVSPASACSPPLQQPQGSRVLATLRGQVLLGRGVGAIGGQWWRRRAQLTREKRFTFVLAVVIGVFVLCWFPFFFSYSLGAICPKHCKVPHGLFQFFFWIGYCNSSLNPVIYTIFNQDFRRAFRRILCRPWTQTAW
Experimental: To evaluate in radioligand binding assays the activity of compounds of the invention, human recombinant adrenergic α2B receptor expressed in Chinese hamster ovary (CHO-K1) cells [Uhlen, S et al., Eur J Pharmacol. (1998), 343(1):93] in a modified Tris-HCl buffer (50 mM Tris-HCl, pH 7.4, 12.5 mM MgCl2, 1 mM EDTA, 0.2% BSA) was used. Compounds of the invention were incubated with 2.5 nM [^3H]Rauwolscine for 60 min. at 25° C. Non-specific binding was estimated in the presence of 10 μM Prozosin. Receptor proteins were filtered and washed, the filters were then counted to determine [^3H]Rauwolscine specifically bound. Compounds were screened at 1 μM or lower, using 1% DMSO as vehicle. Compounds of the invention were tested in this biochemical assay. Biochemical assay results for representative compounds were presented as the percent inhibition of specific binding in Table 3.

[4] = target: T3, human recombinant serotonin (5-Hydroxytryptamine) 5-HT2A receptor (Homo sapiens, UniProt P28223); test: Serotonin 5-HT2A radioligand binding assay; conditions: [3H]Ketanserin specific binding, read-out: Percent Inhibition of ligand binding, Serotonin (1 μM ligand concentration) 5-HT2A
T3 construct: expressed in transfected cells; host or cells: Chinese hamster ovary (CHO-K1) cells
T3 sequence (P28223 whole entry): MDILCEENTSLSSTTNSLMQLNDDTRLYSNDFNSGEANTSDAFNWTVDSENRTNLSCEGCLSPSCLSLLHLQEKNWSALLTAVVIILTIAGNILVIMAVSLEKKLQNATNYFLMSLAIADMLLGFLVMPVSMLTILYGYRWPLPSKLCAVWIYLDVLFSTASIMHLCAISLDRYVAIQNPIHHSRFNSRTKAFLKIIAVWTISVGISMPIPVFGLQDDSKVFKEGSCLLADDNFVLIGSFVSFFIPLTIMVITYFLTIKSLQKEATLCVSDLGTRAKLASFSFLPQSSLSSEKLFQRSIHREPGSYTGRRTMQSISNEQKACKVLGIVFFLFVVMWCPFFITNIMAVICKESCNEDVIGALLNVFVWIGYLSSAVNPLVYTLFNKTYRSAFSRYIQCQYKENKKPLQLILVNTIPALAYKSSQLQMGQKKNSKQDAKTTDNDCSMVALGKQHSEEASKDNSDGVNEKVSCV
Experimental: To evaluate in radioligand binding assays the activity of compounds of the invention, human recombinant serotonin (5-Hydroxytryptamine) 5-HT2A receptor expressed in Chinese hamster ovary (CHO-K1) cells [Bonhaus, D. W. et al., Br. J. Pharmacol. (1995), 115:622; Saucier, C. et al., J. Neurochem. (1997), 68:1998] in a 50 mM Tris-HCl buffer, pH 7.4, was used. Compounds of the invention were incubated with 0.5 nM [^3H]Ketanserin for 60 min. at 25° C. Non-specific binding was estimated in the presence of 1 μM Mianserin. Receptor proteins were filtered and washed, the filters were then counted to determine [^3H]Ketanserin specifically bound. Compounds were screened at 1 μM or lower, using 1% DMSO as vehicle. Biochemical assay results are presented as the percent inhibition of specific binding in Table 4.

| SMILES | inhibition at 1 µM [1] [%] | inhibition at 1 µM [2] [%] | inhibition at 1 µM [3] [%] | inhibition at 1 µM [4] [%] | inhibition at 0.1 µM [1] [%] | inhibition at 0.1 µM [3] [%] | Percent Inhibition of ligand binding, Dopamine (1 μM ligand conc.) D2L [2] [%] |
| --- | --- | --- | --- | --- | --- | --- | --- |
| Cc1ccc2c(c1)c1c(n2CC(=O)N2CCOCC2)CN2CCC1C2 (stereo not shown) [Compound 26] | 6 | 10 | 7 | 5 | – | – | – |
| Cc1ccc(C(C)(O)Cn2c3c(c4cc(C)ccc42)C2CCN(C3)C2)cc1 (stereo not shown) [Compound 20] | 29 | 9 | 97 | 102 | – | – | – |
| Cc1ccc2c(c1)c1c(n2CC(C)(O)c2ccc(F)cc2F)CN2CCC1C2 (stereo not shown) [Compound 17] | 19 | 5 | 90 | 81 | – | – | – |
| Cc1ccc2c(c1)c1c(n2CC(=O)NC2CCCCC2)CN2CCC1C2 (stereo not shown) [Compound 23] | 18 | 5 | -6 | -4 | – | – | – |
| Cc1ccc2c(c1)c1c(n2CC(=O)N2CCNCC2)CN2CCC1C2 (stereo not shown) [Compound 24] | 2 | -8 | -4 | 3 | – | – | – |
| Cc1ccc(/C=C/n2c3c(c4cc(C)ccc42)C2CCN(C3)C2)cc1 (stereo not shown) [Compound 10] | 73 | 18 | 66 | 20 | – | – | – |
| Cc1ccc2c(c1)c1c(n2CC(O)c2ccc(F)cc2)CN2CCC1C2 (stereo not shown) [Compound 31] | 34 | 2 | 79 | 58 | – | – | – |
| Cc1ccc2c(c1)c1c(n2CC(C)(O)c2ccc(Cl)cc2)CN2CCC1C2 (stereo not shown) [Compound 16] | 24 | 5 | 103 | 92 | – | – | – |
| Cc1ccc2c(c1)c1c(n2CC(O)c2ccccc2)CN2CCC1C2 (stereo not shown) [Compound 4] | 54 | 3 | 89 | 49 | – | – | – |
| Cc1ccc2c(c1)c1c(n2CC(=O)c2ccccc2)CN2CCC1C2 (stereo not shown) [Compound 21] | -4 | -2 | 20 | 16 | – | – | – |
| Cc1ccc2c(c1)c1c(n2CC(C)(O)c2ccc(Cl)cc2Cl)CN2CCC1C2 (stereo not shown) [Compound 14] | -5 | 11 | 68 | 61 | – | – | – |
| C/C(=C\n1c2c(c3cc(C)ccc31)C1CCN(C2)C1)c1ccccc1F (stereo not shown) [Compound 38] | – | 1 | – | 90 | -3 | 25 | – |
| Cc1ccc2c(c1)c1c(n2CC(C)(O)c2ccc(F)c(Cl)c2)CN2CCC1C2 (stereo not shown) [Compound 18] | 1 | -1 | 107 | 81 | – | – | – |
| Cc1ccc2c(c1)c1c(n2CC(C)(O)c2ccc(F)c(F)c2)CN2CCC1C2 (stereo not shown) [Compound 15] | 28 | 0 | 106 | 82 | – | – | – |
| C/C(=C\n1c2c(c3cc(C)ccc31)C1CCN(C2)C1)c1ccc(Cl)cc1 (stereo not shown) [Compound 32] | 80 | -12 | 98 | 86 | 9 | 56 | – |
| Cc1ccc2c(c1)c1c(n2CCc2ccccn2)CN2CCC1C2 (stereo not shown) [Compound 11] | 26 | -6 | 48 | 10 | – | – | – |
| Cc1ccc2c(c1)c1c(n2CCc2ccc(C(F)(F)F)nc2)CN2CCC1C2 (stereo not shown) [Compound 1] | 51 | 8 | 7 | 18 | – | – | – |
| Cc1ccc2c(c1)c1c(n2CC(C)(O)c2ccc(Cl)c(Cl)c2)CN2CCC1C2 (stereo not shown) [Compound 13] | 14 | -2 | 99 | 82 | – | – | – |
| C=C(Cn1c2c(c3cc(C)ccc31)C1CCN(C2)C1)c1ccc(F)cc1 (stereo not shown) [Compound 3] | 93 | 12 | 93 | 94 | – | – | 21 |
